Where two headings read alike, the source gives them in different places.
What was measured:
BRD9 [1] = target: T1, BRD9 (Homo sapiens, UniProt Q9H8M2); assay: Capillary western of BRD9 in 768-O cells; type: cell-based; settings: 768-O cells lacking VHL expression
T1 sequence (Q9H8M2 1-597): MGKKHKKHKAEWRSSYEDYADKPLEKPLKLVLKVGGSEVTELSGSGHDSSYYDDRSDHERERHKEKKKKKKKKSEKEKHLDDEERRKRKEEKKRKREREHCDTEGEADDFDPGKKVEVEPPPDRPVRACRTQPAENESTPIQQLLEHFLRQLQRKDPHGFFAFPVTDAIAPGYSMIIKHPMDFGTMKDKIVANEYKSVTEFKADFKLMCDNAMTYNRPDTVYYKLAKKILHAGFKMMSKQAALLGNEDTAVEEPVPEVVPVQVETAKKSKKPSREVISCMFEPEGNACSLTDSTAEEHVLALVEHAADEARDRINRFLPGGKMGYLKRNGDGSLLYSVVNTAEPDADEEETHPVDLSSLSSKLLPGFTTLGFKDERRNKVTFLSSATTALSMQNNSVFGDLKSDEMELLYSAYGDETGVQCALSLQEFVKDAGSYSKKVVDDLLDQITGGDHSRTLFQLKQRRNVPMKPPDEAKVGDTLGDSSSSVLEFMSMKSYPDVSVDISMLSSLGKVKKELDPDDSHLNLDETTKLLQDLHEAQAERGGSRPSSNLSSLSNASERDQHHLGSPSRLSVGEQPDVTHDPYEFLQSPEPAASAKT
Experimental: Protein peaks were analyzed using Compass for Simple Western version 5.0.1 (ProteinSimple), area under the curve for both α-tubulin ([…]) and BRD9 (90 kDa) per capillary was extracted and BRD9 area was normalized to α-tubulin area on a per-capillary basis before each sample was normalized to the DMSO for each run of three triplicates.

BRD7 = target: T2, BRD7 (Homo sapiens, UniProt Q9NPI1); assay: BRD7-HiBiT protein abundance luminescence assay in HEK293 cells
T2 sequence (Q9NPI1 1-651): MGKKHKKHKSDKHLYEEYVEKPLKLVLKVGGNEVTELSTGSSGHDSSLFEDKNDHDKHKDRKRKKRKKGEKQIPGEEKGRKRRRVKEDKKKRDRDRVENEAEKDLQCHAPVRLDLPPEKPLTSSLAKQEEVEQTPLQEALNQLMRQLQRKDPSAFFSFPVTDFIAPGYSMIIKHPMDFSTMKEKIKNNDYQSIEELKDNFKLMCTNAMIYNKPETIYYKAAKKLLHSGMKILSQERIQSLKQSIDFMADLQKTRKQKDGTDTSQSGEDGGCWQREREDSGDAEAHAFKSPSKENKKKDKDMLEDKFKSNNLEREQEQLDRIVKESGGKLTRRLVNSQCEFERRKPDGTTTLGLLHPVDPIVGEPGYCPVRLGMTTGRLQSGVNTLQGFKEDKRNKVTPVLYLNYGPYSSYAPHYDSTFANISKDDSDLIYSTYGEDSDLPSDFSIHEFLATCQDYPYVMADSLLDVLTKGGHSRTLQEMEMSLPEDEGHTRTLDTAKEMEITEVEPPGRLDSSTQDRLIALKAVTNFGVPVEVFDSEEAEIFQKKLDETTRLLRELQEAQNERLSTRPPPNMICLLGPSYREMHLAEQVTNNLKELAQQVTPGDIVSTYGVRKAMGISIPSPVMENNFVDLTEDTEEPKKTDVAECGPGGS
Excerpt: HEK293/BRD9-HiBiT pools (PROMEGA # CS3023120) and HEK293/BRD7-HiBiT pools (PROMEGA # CS3023124) were purchased from Promega. We performed clonal selection for HEK293/BRD9-HiBiT cell line using single-cell sorting and screening for HiBiT expression using Nano-Glo HiBiT Lytic Detection System (Promega # N3030). The HEK293/BRD9-HiBiT clone and HEK293/BRD7-HiBiT pool to perform standard HiBiT assays.

[2] = Viability by FSC/SSC gate (flow cytometry) in TMD8 BTK-GFP/mCh cells; type: cell-based, human; design: Max dose w/ Gating Viability >25%: unit: µM; settings: human, TMD8 BTK-GFP/mCh cells, TMD8 BTK-GFP/mCh, 24 h
Experimental: (§1) For flow cytometry measurements, 25,000 exponentially growing TMD8 BTK-GFP/mCh cells were plated in 100 μL of each well of a 96-well plate and grown for 24 h. Cells were then dosed with corresponding compounds and doses from 10 mM DMSO stock for 24 h, after which GFP and mCherry fluorescence was read with a Beckmann Coulter Cytoflex. For competition experiment, both compounds were added at the same time and dosed for 24 h. Cells were gated based on Forward & Side Scatter and selection for Single cells using SSC-A vs. SSC-H. Further, the population of viable cells was defined by the forward & side-scatter characteristics of DMSO-treated cells. […] Effects on viability were measured by the reduction of the percentage of cells included in this viable-population gate with increasing doses of compound tested. Degradation of BTK was calculated based on subtracting background (BG) fluorescence of parental TMD8 signal via (GFP-BG)/(mCherry-BG) of viable cells. Median ratios of three technical (different wells) replicates were used to calculate daily averages. Each compound dose–response was generated via three biological replicates (different days of experiment). Degradation curve parameters (DC50 & Abs. DC50 & max. Deg) were extracted using GraphPad Prism’s 4-parameter logistic curve fitting.
(§2) The viability window was determined by measuring the GI50 of viability based on the percentage of cells included in the viable gate and comparing it to the DC50 of degradation. The fold-change difference describing this window is [GI50 Viability / DC50 Degradation], where values above 1 indicate a positive (lower DC50 degradation than AC50 viability) window.

TMD8 BTK-GFP/mCh cells = assay: as above; type: cell-based, human; design: Max dose w/ Gating Viability >25%: unit: µM; settings: TMD8 BTK-GFP/mCh, 24 h
Experimental: as §1, §2

BTK [3] = target: T3, BTK (Homo sapiens, UniProt Q06187); assay: BTK-GFP degradation by flow cytometry in TMD8 BTK-GFP/mCh cells; type: cell-based; design: performed with full-length BTK and endogenous DCAF1; expressed in transfected cells; host or cells: TMD8 cells, lentiviral, blasticidin-selected (TMD8 BTK-GFP/mCh); settings: TMD8 BTK-GFP/mCh, 24 h; read-out: DC50 BTK-Degradation
Experimental: The bicistronic pLenti6 BTK-GFP-chysel-mCHERRY expression vector was cloned as described[92] using Gateway cloning with a pENTR-BTK plasmid lacking a STOP codon. TMD8 cells were then infected with lentiviral particles from this vector as described above and stably transfected cells were selected with blasticidin at a concentration of 10 μg/mL referred to as TMD8 BTK-GFP/mCh cells.
For flow cytometry measurements, 25,000 exponentially growing TMD8 BTK-GFP/mCh cells were plated in 100 μL of each well of a 96-well plate and grown for 24 h. Cells were then dosed with corresponding compounds and doses from 10 mM DMSO stock for 24 h, after which GFP and mCherry fluorescence was read with a Beckmann Coulter Cytoflex. For competition experiment, both compounds were added at the same time and dosed for 24 h. Cells were gated based on Forward & Side Scatter and selection for Single cells using SSC-A vs. SSC-H. Further, the population of viable cells was defined by the forward & side-scatter characteristics of DMSO-treated cells. To confirm cells outside of this population as non-viable, cells were plated and treated for 24 h, washed with PBS and stained for 30 min with two markers of early (Annexin-V) and late (LIVE/DEAD) apoptosis. Effects on viability were measured by the reduction of the percentage of cells included in this viable-population gate with increasing doses of compound tested. Degradation of BTK was calculated based on subtracting background (BG) fluorescence of parental TMD8 signal via (GFP-BG)/(mCherry-BG) of viable cells. Median ratios of three technical (different wells) replicates were used to calculate daily averages. Each compound dose–response was generated via three biological replicates (different days of experiment). Degradation curve parameters (DC50 & Abs. DC50 & max. Deg) were extracted using GraphPad Prism’s 4-parameter logistic curve fitting.

[4] = test system: TMD8 WT and TMD8 CRBN resist. cells; assay: CellTiter-Glo viability, TMD8 WT vs CRBN resist. cells; type: cell-based, human; settings: CellTiter-Glo proliferation
Experimental: TMD8 cells were grown in the presence of a CRBN-BTK PROTAC CBt using a gradual dose increase. Start treatment was 0.1 nM for 6 weeks, followed by 3 weeks at 0.4 nM and another 4 weeks at 10 nM to finally obtain CBt resistant TMD8 cells (TMD8 CRBN resist.).
d) Viability measured by cell titer-Glo for DBt-10 (green) vs (13) (purple) in WT (solid) vs CRBN resist.
(dotted) TMD8 cells. Data represents average ± standard deviation from n=3 replicates.
e) Repeat of the viability measured by cell titer-Glo for DBt-10 (green) vs (13) (purple) in WT (solid) vs
CRBN resist. (dotted) TMD8 cells with adjusted dose response range. Data represents average ±
standard deviation from n=3 replicates.
(§3) Source data are provided as a Source Data file

BTK [5] = target: T3, BTK; assay: Immunoblot of BTK in TMD8 WT and CRBN (CBt) resistant cells; type: cell-based; design: performed with full-length BTK and endogenous DCAF1; expressed in transfected cells; host or cells: TMD8 cells, lentiviral, blasticidin-selected (TMD8 BTK-GFP/mCh); settings: 24 h; 0.1 µM CBt, 1 µM DBt-10
Experimental: Whole cell lysates for immunoblotting were prepared by pelleting cells at 4 °C (300 g) for 3 min. Cell pellets were then washed 1x with PBS and resuspended in RIPA lysis buffer (VWR, cat # 97063-270) supplemented with protease (Thermo Scientific, cat # A32955) and phosphatase (Thermo Scientific, cat # A32957) inhibitor tablets. Lysates were clarified at 16,000 × g for 15 min at 4 °C prior to quantification by Lowry assay (Bio-Rad cat # 5000113 and cat # 5000114). Whole-cell lysates were loaded into 4–20% Criterion TGX Precast 18 well gels (Bio-Rad, cat # 5671094) and separated by electrophoreses at 120 V for 1 h. The gels were transferred to a nitrocellulose membrane using the Trans-Blot Turbo (Bio-Rad) for 7 min and then blocked for 1 h at room temperature in Odyssey blocking buffer (LICOR Biosciences, cat # 927-50000). Membranes were probed with the appropriate primary antibodies (diluted 1:1000) overnight at 4 °C in 20% Odyssey blocking buffer in 1x TBST. Membranes were washed three times with 1x TBST (5 min per wash), and then incubated with IRDye goat anti-mouse (LICOR, cat # 926-32210) or goat anti-rabbit (LICOR, cat # 926-32211) secondary antibody diluted 1:10,000 in 20% Odyssey blocking buffer for 1 h at room temperature. After three 5-min washes with 1x TBST, the immunoblots were visualized using the ODYSSEY Infrared Imaging System (LICOR). […]

BRD9 [6] = target: T1, BRD9; assay: Rescue of DBr-1 mediated BRD9 degradation by co-treatment, BRD9-HiBiT HEK293 cells; type: cell-based; design: host or cells: HEK293/BRD9-HiBiT knock-in; clone and BRD9-HiBiT/CAS9/FF clone; settings: (13) 1 µM, OICR8268 10 µM, BI-9564 10 µM
Experimental: Supplementary figure 4. Competition experiments with DBr-1 and DBr-1-N […]
a) BRD9-HiBiT signal detection of samples pretreated with either DMSO, 10µM OICR-8268, 1µM […]
Data represents average ± standard deviation from n=3 replicates. DC50 values and […]
maximal observed degradation are shown below. […]
b) Cell titer Glow assay of BRD9 HiBiT cells. Cells pretreated with either DMSO, 10µM OICR-8268, […]
Data represents average ± standard deviation from n=3 replicates.
as §3

BRD9 [7] = target: T1, BRD9; assay: Immunoblot of BRD9 in HEK293 BRD9-HiBiT/FF/CAS9 cells; type: cell-based; design: host or cells: HEK293/BRD9-HiBiT knock-in; clone and BRD9-HiBiT/CAS9/FF clone; settings: 1000 nM, 6 h
Experimental: Whole cell lysates for immunoblotting were prepared by pelleting cells at 4 °C (300 g) for 3 min. Cell pellets were then washed 1x with PBS and resuspended in RIPA lysis buffer (VWR, cat # 97063-270) supplemented with protease (Thermo Scientific, cat # A32955) and phosphatase (Thermo Scientific, cat # A32957) inhibitor tablets. Lysates were clarified at 16,000 × g for 15 min at 4 °C prior to quantification by Lowry assay (Bio-Rad cat # 5000113 and cat # 5000114). Whole-cell lysates were loaded into 4–20% Criterion TGX Precast 18 well gels (Bio-Rad, cat # 5671094) and separated by electrophoreses at 120 V for 1 h. The gels were transferred to a nitrocellulose membrane using the Trans-Blot Turbo (Bio-Rad) for 7 min and then blocked for 1 h at room temperature in Odyssey blocking buffer (LICOR Biosciences, cat # 927-50000). Membranes were probed with the appropriate primary antibodies (diluted 1:1000) overnight at 4 °C in 20% Odyssey blocking buffer in 1x TBST. Membranes were washed three times with 1x TBST (5 min per wash), and then incubated with IRDye goat anti-mouse (LICOR, cat # 926-32210) or goat anti-rabbit (LICOR, cat # 926-32211) secondary antibody diluted 1:10,000 in 20% Odyssey blocking buffer for 1 h at room temperature. After three 5-min washes with 1x TBST, the immunoblots were visualized using the ODYSSEY Infrared Imaging System (LICOR). Alternatively, SDS-PAGE resolved proteins were transferred to a PVDF membrane using a wet blotting system (Invitrogen). Membranes were blocked in 5% Milk-PBS-Tween 20 for 1 h and incubated with primary antibody over night at 4 °C. Secondary antibodies (secondary antibody: anti-rabbit, goat pAb to Rb-IgG (Abcam, #7090); secondary antibody: anti-mouse, sheep IgG HRP-linked (GE healthcare, #NA931V)) were incubated for 1 h at room temperature (RT) before blots were developed on film using the detection kit SuperSignal West Femto Maximum Sensitivity Substrate (Thermo Fisher, #34096).

T3 sequence (Q06187 2-659 limits assumed): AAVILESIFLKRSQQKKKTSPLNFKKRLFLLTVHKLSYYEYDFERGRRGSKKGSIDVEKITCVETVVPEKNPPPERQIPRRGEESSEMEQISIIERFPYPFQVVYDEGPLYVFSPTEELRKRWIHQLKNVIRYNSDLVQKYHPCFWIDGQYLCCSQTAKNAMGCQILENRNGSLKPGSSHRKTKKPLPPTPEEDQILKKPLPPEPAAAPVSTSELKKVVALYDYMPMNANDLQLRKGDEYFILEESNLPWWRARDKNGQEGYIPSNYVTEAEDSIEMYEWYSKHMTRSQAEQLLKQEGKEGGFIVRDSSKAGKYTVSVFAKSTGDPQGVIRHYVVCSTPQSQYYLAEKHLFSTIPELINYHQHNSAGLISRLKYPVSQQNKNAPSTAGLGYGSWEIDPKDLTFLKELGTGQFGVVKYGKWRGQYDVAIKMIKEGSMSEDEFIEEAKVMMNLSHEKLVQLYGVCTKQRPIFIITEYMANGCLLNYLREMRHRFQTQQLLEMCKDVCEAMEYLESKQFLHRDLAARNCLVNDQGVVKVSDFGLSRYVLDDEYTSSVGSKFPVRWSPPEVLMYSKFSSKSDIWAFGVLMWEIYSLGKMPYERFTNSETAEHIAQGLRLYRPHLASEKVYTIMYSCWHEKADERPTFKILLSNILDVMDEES

COc1cc(-c2cn(C)c(=O)c3cnccc23)cc(OC)c1CN1CCN(CCCCCOc2cc(-c3scnc3C)ccc2CNC(=O)[C@@H]2C[C@@H](O)CN2C(=O)[C@@H](NC(=O)C2(F)CC2)C(C)(C)C)CC1 [VZ185]
BRD9 levels in 768-O cells (BRD9 [1]): intrinsic resistance
maximal observed degradation (BRD7), % in brackets (BRD7; 2 h): 21%
DC50 (BRD7; read-out: rel. DC50 (BRD7), 2 h): 137 nM

CCN(CC)Cc1ccc(-c2cc3c(-c4cc(F)cc(NC(=O)c5ccc(C(C)(C)O)cc5F)c4C)ncnc3[nH]2)cc1 [compound 17, reference compound]
GI50 at 24 h ([2]; read-out: Abs GI50): 6.82 µM
GI50 at 24 h ([2]; read-out: GI50): 6.75 µM
Max dose w/ Gating Viability >25% (TMD8 BTK-GFP/mCh cells): 5.39
DC50 (BTK [3]): > 25 µM
relative potency change between CBt sensitive and resistant TMD8 cells [4]: neither inhibitor showed any relative potency change

COc1ccc(C(=O)N2CCC3(CCN(CCc4ccc(-c5cc6c(-c7cc(F)cc(NC(=O)c8ccc(C(C)(C)O)cc8F)c7C)ncnc6[nH]5)cc4)CC3)CC2)cc1N1CCC(=O)NC1=O [CBt, reference compound]
BTK degradation in TMD8 CBt sensitive (WT) vs resistant cells (BTK [5]): BTK degradation only in the WT but not in the CBt-resistant TMD8 cells

C=CC(=O)N1CCC[C@@H](n2nc(-c3ccc(Oc4ccccc4)cc3)c3c(N)ncnc32)C1 [ibrutinib]
relative potency change between CBt sensitive and resistant TMD8 cells [4]: neither inhibitor showed any relative potency change

COc1cc(-c2cn(C)c(=O)c3cnccc23)c(OC)cc1CN(C)C [BI-9564, reference compound]
effect of co-treatment on DBr-1 mediated BRD9 degradation (BRD9 [6]): fully rescue the BRD9 degradation
BRD9 protein reduction by individual binders (BRD9 [7]): No BRD9 protein reduction

From article PMC10766610, “DCAF1-based PROTACs with activity against clinically validated targets overcoming intrinsic- and acquired-degrader resistance” (Nature Communications, 2024)
